Series [1] deals with Sprague Dawley (SD) rats with vitamin D3-induced limb ischemia. Briefly: Limb blood perfusion by laser doppler perfusion imaging, treatment after inception of limb ischemia. The class given is in vivo, rat. The conditions noted are these: Example 3; 40 mg/kg daily D5 to D13.
Procedure: Position limb blood perfusion and ischemia status (i.e., blood perfusion including, perfusion unit, perfusion difference and perfusion ratio) is evaluated by laser doppler perfusion imaging using a PeriCam PSI NR imager (Perimed AB, Järfä11a, SE). Subjects are anesthetized using 3% isoflurane delivered in 100% oxygen at a flow rate at 1 L/min before measuring. The perfusion difference and perfusion ratio are calculated by comparing the baseline and any indicated interim or final readings for each group. […] Limb ischemia was induced in the subjects of groups 2-5 by subcutaneous administration of 120,000 IU/kg vitamin D3 (cholecalciferol, Duphafral D3 1000; Zoetis Inc., Parsippany, NJ, US) in physiological saline solution (2 mL/kg) every day during D1 to D3. The group 1 subjects were administered physiological saline solution (2 mL/kg) subcutaneously every day from D1 to D3 with no vitamin D3. Subjects in groups 3a placebo were administered 2 mL/kg of physiological saline solution daily from D5 to D13 via subcutaneous route. Subjects in group 3b placebo were administered orally 5 mL/kg of a 5% CMC sodium salt in water solution daily from D5 to D13. […] The perfusion difference and perfusion ratio were calculated by comparing the baseline and either D5 and D13 readings for each group.
Series [2] concerns adenine-induced uremic Sprague Dawley (SD) rats. Briefly: Limb blood perfusion by laser doppler perfusion imaging, adenine-induced uremic rat model. The conditions noted are these: Example 6; SNF472 30, 45 mg/kg s.c. or 400 mg/4 weeks Alzet pump; cilostazol 45 mg/kg oral; D1 to D21. It counts as in vivo. The method, then:
Position limb blood perfusion and ischemia status (i.e., blood perfusion including, perfusion unit, perfusion difference and perfusion ratio) is evaluated by laser doppler perfusion imaging using a PeriCam PSI NR imager (Perimed AB, Järfä11a, SE). Subjects are anesthetized using 3% isoflurane delivered in 100% oxygen at a flow rate at 1 L/min before measuring. The perfusion difference and perfusion ratio are calculated by comparing the baseline and any indicated interim or final readings for each group.
Uremia and limb ischemia were induced in groups 2-6 by a daily dose of adenine (500 mg/kg, suspended in 1% carboxymethyl cellulose, administered orally) for the first 10 days, and then with a dose of α-calcidol (100 ng/kg in olive oil, administered orally) three times per week from D11 to D19, to accelerate and homogenize the development of cardiovascular calcification and ischemia.
Animals in group 6 were administered orally 45 mg/kg cilostazol (C20H27N5O2, free base 369.46 g/mol; lot no. LRAB9590, Sigma-Aldrich Corp., St. Louis, MO, US) in a 5% CMC sodium salt in water solution (5 mL/kg) daily from D1 to D21.
Limb ischemia status was evaluated during treatment (i.e., DO, D10 and D17 and D21) in all rats by laser doppler perfusion imaging. The perfusion difference and perfusion ratio were calculated by comparing the baseline and of the D10, D17 and D21 readings for each group.

The conditions of series [3]: in vivo; cited from earlier work.
The subject of series [4] is Sprague Dawley (SD) rats with vitamin D3-induced limb ischemia. The experiment in a line: Limb blood perfusion by laser doppler perfusion imaging, prevention of vitamin D3-induced limb ischemia. The class given is in vivo, rat. The method, then: Position limb blood perfusion and ischemia status (i.e., blood perfusion including, perfusion unit, perfusion difference and perfusion ratio) is evaluated by laser doppler perfusion imaging using a PeriCam PSI NR imager (Perimed AB, Järfä11a, SE). Subjects are anesthetized using 3% isoflurane delivered in 100% oxygen at a flow rate at 1 L/min before measuring. The perfusion difference and perfusion ratio are calculated by comparing the baseline and any indicated interim or final readings for each group. […]
Limb ischemia status was evaluated at days DO (baseline), D6 and D12 in all rats by laser doppler perfusion imaging. The perfusion difference and perfusion ratio were calculated by comparing the DO baseline and either the D6 and D12 readings for each group. […]
Limb ischemia status was evaluated during treatment and after treatment was interrupted (i.e., DO, D6, D12, D18) in all rats by laser doppler perfusion imaging. The perfusion difference and perfusion ratio were calculated by comparing the baseline and either of the D6, D12, and D18 readings for each group. […]
Limb ischemia status was evaluated during the treatment period (i.e., DO, D6 and D12) by laser doppler perfusion imaging in all rats. The perfusion difference and perfusion ratio were calculated by comparing the baseline and either of the D6 and D12 readings for each group.

Series [5] concerns Sprague Dawley (SD) rats treated with vitamin D3. The experiment in a line: Tissue calcification (calcium content by ICP-OES), VitD rat model, prevention. The class given is in vivo.
Source text: Subjects are anesthetized by isoflurane inhalation. Blood is obtained by exsanguination through cardiac puncture. The subjects are then sacrificed and their tissues (e.g., right and left femoral arteries, aorta) are collected. The blood and tissues are processed and analyzed for determining their calcium contents. Calcium content in tissue sample is quantified via inductively coupled plasma optical emission spectrometry (ICP-OES) using an Optima 7300 DV ICP-OES System spectrometer (PerkinElmer, Inc., Waltham, MA, US) according to the manufacturer's instructions. […] The subjects from groups 1, 2, 3 and 5 were sacrificed after exsanguination. Then, their necropsies were performed, and their aortas were collected. The tissues were lyophilized for 24 h and weighed. The lyophilized tissues were then digested using a 1:1 HNO3: HClO4 mixture in a dry bath incubator for 2-4 h at 180° C. The digested tissues were subsequently diluted using ultra-pure Milli-Q water (MilliporeSigma (Merck KGaA), Burlington, MA, US) to a final volume of 10 mL. The calcium content in the aorta sample was quantified via ICP-OES. Subjects were anesthetized and their blood was obtained in D24. The subjects were sacrificed after exsanguination. Then, their necropsies were performed, and their aortas were collected. The tissues were lyophilized for 24 h and weighed. The lyophilized tissues were then digested using a 1:1 HNO3: HClO4 mixture in a dry bath incubator for 2-4 h at 180° C. The digested tissues were subsequently diluted using ultra-pure Milli-Q water (MilliporeSigma (Merck KGaA), Burlington, MA, US) to a final volume of 10 mL. The calcium content in the tissue samples was quantified via ICP-OES. Subjects were anesthetized and their blood was obtained in D12. The subjects were sacrificed after exsanguination. Then, their necropsies were performed, and their heart and aorta arteries were collected. The tissues were lyophilized for 24 h and weighed. […] The calcium content in the tissue samples was quantified via ICP-OES.
In series [6] the test system is Sprague Dawley (SD) rats with vitamin D3-induced limb ischemia. Briefly: Walking ability by treadmill running test, treatment after inception of limb ischemia. The class given is in vivo, rat. The conditions noted are these: Example 3; 40 mg/kg/day, treatment started 5 days after ischemia induction, D11. The method, then:
(§1) Quantification of walking ability (maximal waling time (MWT) and maximal walking distance (MWD)) are measured by a forced incremental treadmill running test. A two-lane rodent treadmill (LE8709TS; PanLab/Harvard Apparatus, Holliston, MA, US) is employed. The treadmill is maintained at a 15% inclination running at a speed of 15 m/min (25 cm/sec) during the first 5 min, then at 33 cm/see during the following 5 min, and finally, at a speed of 40 cm/see for a maximum of 30 additional minutes.
Maximal walking time (MWT) and maximal walking distance (MWD) were assessed in all groups at DO and in groups 1, 3a, 3b, 4, and 5 at D6 and D11 by the treadmill running test (8 to 12 animals per group and time point). Subjects were acclimatized to the treadmill for two days before conducting the test. On the first day, subjects were exercised for 5 to 10 minutes with the treadmill speed ranging progressively from 15 m/min to 24 m/min. […]
Limb function (MWT and MWD) was assessed in groups 1, 3a, 3b, and 4 using the treadmill running test 15 min after the corresponding daily administration. Limb function in groups 5 was assessed from 3 to 4 hours after treatment.
(§2) The subjects were kept running for 40 minutes or until exhausted (i.e., they remain on the shock grid for five continuous seconds). MWD and MWT was then calculated for each animal.

Series [7] has as its system adenine-induced uremic Sprague Dawley (SD) rats. The experiment in a line: Heart and aorta calcification (calcium content by ICP-OES), adenine-induced uremic rat model. It counts as in vivo. The conditions noted are these: Example 6; SNF472 s.c. dosing or Alzet pump; cilostazol 45 mg/kg oral; D21. The method, then:
Uremia and limb ischemia were induced in groups 2-6 by a daily dose of adenine (500 mg/kg, suspended in 1% carboxymethyl cellulose, administered orally) for the first 10 days, and then with a dose of α-calcidol (100 ng/kg in olive oil, administered orally) three times per week from D11 to D19, to accelerate and homogenize the development of cardiovascular calcification and ischemia. Subjects were anesthetized and their blood was obtained in D21. The subjects were sacrificed after exsanguination. Then, their necropsies were performed, and their heart and aorta arteries were collected. The tissues were lyophilized for 24 h and weighed. The lyophilized tissues were then digested using a 1:1 HNO3: HClO4 mixture in a dry bath incubator for 2-4 h at 180° C. The digested tissues were subsequently diluted using ultra-pure Milli-Q water (MilliporeSigma (Merck KGaA), Burlington, MA, US) to a final volume of 10 mL. The calcium content in the tissue samples was quantified via ICP-OES.

Series [8] concerns Sprague Dawley (SD) rats with vitamin D3-induced limb ischemia. The experiment in a line: Walking ability (MWD, MWT) by treadmill running test, prevention of vitamin D3-induced limb ischemia. The class given is in vivo, rat. As to the method:
as §1
Subjects are exercised in the treadmill for acclimatization according to a set protocol prior to testing.
Subjects are kept running for up to 40 min or until exhausted (i.e., they remain on the shock grid for five continuous seconds) during the test. MWD and MWT are then calculated for each animal.
Maximal waling time (MWT) and maximal walking distance (MWD) were assessed in groups 1~4 by the treadmill running test (8 to10 animals per group and time point) in DO, D5, D10, and D17.
Subjects were acclimatized to the treadmill for two days before conducting the test. On the first day, subjects were exercised for 5 to 10 minutes with the treadmill speed ranging progressively from 15 m/min to 24 m/min. On the second day, the subjects were exercised initially at a speed of 15 m/min for the 5 minutes. Then, they were exercised at 19.8 m/min (33 cm/sec) for 5 additional minutes. Finally, the subjects were exercised at 24 m/min (40 cm/sec) for a maximum 30 additional minutes. Preoperative walking time and distance recordings were obtained.
Limb function (MWT and MWD) was assessed in groups 1, 2, and 3 using the treadmill running test 15 min after the corresponding daily administration. Limb function in groups 4 was assessed from 3 to 4 hours after treatment.
as §2
Maximal walking time (MWT) and maximal walking distance (MWD) were assessed in groups 1-8 by the treadmill running test (8 to12 animals per group and time point) in DO, D5 and D10.
Limb function (MWT and MWD) was assessed in groups 1, 2, 3, 4, 5, 6 and 7 using the treadmill running test 15 min after the corresponding daily administration. Limb function in group 8 was assessed from 3 to 4 hours after treatment.

Series [9] deals with people with symptomatic PAD. The conditions noted are these: recent studies in PAD patients; cited from earlier work.

The text below walks through data of patent US20260240877A1, “INOSITOL PHOSPHATE COMPOUNDS FOR USE IN INCREASING TISSULAR PERFUSION” (SANIFIT THERAPEUTICS, S.A., priority 2019, published 2026).

Take `O=C1CCc2cc(OCCCCc3nnnn3C3CCCCC3)ccc2N1` [Cilostazol, 6-[4-(1-cyclohexyl-1H-tetrazol-5yl)butoxy]-3,4-dihydro-2 (1H)-quinolinone]: in [1], the “limbs blood perfusion in D13 compared to D5 before treatment” value is “No improvement or ischemia rescue”. In addition, the “rat limb ischemia in uremic rats (blood perfusion)” value in [2] is given as “not effective”. Also, the side effects result in series [3] is “headache, diarrhea, palpitations, and lightheadedness”. Further, the “rat limb ischemia (blood perfusion)” value in [4] (Example 2, 20 mg/kg daily D1 to D12 (SNF472 s.c., cilostazol oral)) is reported as “not effective”; in [4] (Example 5, SNF472 1, 7.5, 15, 30, 45 mg/kg s.c., cilostazol 45 mg/kg oral, daily D1 to D12), “not effective”. Further, the “inhibition of aorta calcification compared to placebo” value in series [5] (Example 1, 20 mg/kg daily, D12) is recorded as “not active against calcification”; in [5] (Example 2, 20 mg/kg daily D1 to D12, D24 (12 days after interruption of treatment)), “not active against calcification”. For the same compound, in series [5] (Example 5, SNF472 1-45 mg/kg s.c., cilostazol 45 mg/kg oral, D12), the “heart and aorta arteries calcification” value was “not active against calcification”. The “improvement of walking ability (MWD) compared to vehicle” value in series [6] was “not effective”. Besides, in [7], the “heart and aorta arteries calcification in uremic rats” value is given as “not active against calcification”. Further, the “improvement of Maximal Walking Distance (MWD) compared to vehicle” value in series [8] (Example 2, 20 mg/kg daily, D10) is reported as “+54%”. In addition, in series [8] (Example 2, 20 mg/kg daily, D10), the “improvement of Maximal Walking Time (MWT) compared to vehicle” value is listed as “+46%”. In addition, the “effect on walking ability after interrupting treatment” value in series [8] (Example 2, D17, 5 days after interrupting treatment) was “lost its beneficial effects”. Further, the “walking ability compared to vehicle” value in [8] (Example 5, SNF472 1-45 mg/kg s.c., cilostazol 45 mg/kg oral, daily D1 to D12) was “improved walking ability”.

Regarding `CC(=O)CCCCn1c(=O)c2c(ncn2C)n(C)c1=O` [pentoxifylline], the “intermittent claudication symptoms or maximal walking distance versus placebo” value in series [9] is “not significantly improved”.
